From patent US9617244B2, “Antibacterial quinoline derivatives” (JANSSEN PHARMACEUTICA NV, priority 2012, dated 2017)
Converted amounts (≈) assume the structure as drawn. Structures can show the parent of a compound that is named as a salt. Blank lines part the entries; values can stand above or below the compound they belong to.

Legend:
[1] = system: Staphylococcus aureus (ATCC29213); assay: In-vitro anti-bacterial activity, microtitre plate assay, IC90 determination (non-mycobacterial strains); format: cell-based; settings: 90% inhibitory concentration for bacterial growth, resazurin fluorescence; for IC90: Staphylococcus aureus, ATCC29213, 24 h, read-out: IC90 STA B29213; for IC90 STA B29213: 24 hours
How it was run: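 Growth inhibition measured fluorometrically with resazurin (530/590 nm) after overnight 37 °C incubation under normal atmosphere. Bacteria added at roughly 100 TCID50 per well in Mueller-Hinton broth to five-fold compound dilution series; IC90 reported in μg/ml.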

- melting point: 154 °C
SMILES: COc1nc2ccc(Br)cc2cc1C(c1ccc(Cl)cc1)C1(O)CCN(Cc2ccccc2)CC1C (centres unmarked) (as salt: salt) [Compound 25]

- melting point: 238 °C
SMILES: COc1nc2ccc(Br)cc2cc1C(c1ccc(Cl)cc1)C1(O)CCN(Cc2ccccc2)CC1C (centres unmarked) (as salt: salt) [Compound 26]

- melting point: 176 °C
SMILES: COc1nc2ccc(Br)cc2cc1C(c1ccc(Cl)cc1)C1(O)CCNC(Cc2ccc(F)cc2F)C1 (centres unmarked) (as salt: trifluoroacetate) [Compound 51]

- melting point: 147 °C
SMILES: COc1nc2ccc(Br)cc2cc1C(c1ccc(Cl)cc1)C1(O)CCNC(Cc2ccc(F)cc2F)C1 (centres unmarked) (as salt: trifluoroacetate) [Compound 313]

- melting point: 169 °C
SMILES: COc1nc2ccc(Br)cc2cc1C(c1ccc(Cl)cc1)C1(O)CCNC(Cc2ccc(F)cc2F)C1 (centres unmarked) (as salt: trifluoroacetate) [Compound 319]

- IC90 STA B29213 [1]: 4.38 µg/mL (≈ 7.94 µM)
- melting point: 112 °C
SMILES: COc1nc2ccc(Br)cc2cc1C(c1ccc(Cl)cc1)C1(O)CCNC(Cc2ccccc2)C1 (centres unmarked) [Compound 70]

- IC90 STA B29213 [1]: 4.38 µg/mL (≈ 7.94 µM)
- melting point: 138 °C
SMILES: COc1nc2ccc(Br)cc2cc1C(c1ccc(Cl)cc1)C1(O)CCNC(Cc2ccccc2)C1 (centres unmarked) [Compound 71]

- melting point: 157 °C
SMILES: COc1nc2ccc(Br)cc2cc1C(c1ccccc1)C1(O)CCNC(Cc2ccccc2)C1 (centres unmarked) [Compound 74]

- melting point: 192 °C
SMILES: COc1nc2ccc(Br)cc2cc1C(c1ccc(Cl)cc1)C1(O)CCN(Cc2ccccc2)C(Cc2ccccc2)C1 (centres unmarked) [Compound 75]

- melting point: 130 °C
SMILES: COc1nc2ccc(Br)cc2cc1C(c1ccc(Cl)cc1)C1(O)CCNC(Cc2ccccc2)C1 (centres unmarked) [Compound 78]

- melting point: 111 °C
SMILES: COc1nc2ccc(Br)cc2cc1C(c1ccc(Cl)cc1)C1(O)CCNC(Cc2ccc(F)c(F)c2)C1 (centres unmarked) [Compound 111]

- melting point: 210 °C
SMILES: COc1nc2ccc(Br)cc2cc1C(c1ccc(Cl)cc1)C1(O)CCNC(C)C1 (centres unmarked) [Compound 123]

- IC90 [1]: 13.4 µg/mL (≈ 25.1 µM)
- melting point: 135 °C
SMILES: COc1nc2ccc(F)cc2cc1C(c1ccc(Cl)cc1)C1(O)CCN(C(C)c2ccccc2)C(CO)C1 (centres unmarked) [Compound 436]

- IC90 STA B29213 [1]: 3.21 µg/mL (≈ 6.31 µM)
- melting point: 188 °C
SMILES: COc1nc2ccc(Cl)cc2cc1C(c1ccc(Cl)cc1)C1(O)CCNCC1Cc1ccccn1 (centres unmarked) [Compound 438]

- IC90 STA B29213 [1]: 12.77 µg/mL (≈ 25.1 µM)
- melting point: 132 °C
SMILES: COc1nc2ccc(Cl)cc2cc1C(c1ccc(Cl)cc1)C1(O)CCNCC1Cc1ccccn1 (centres unmarked) [Compound 439]

- IC90 STA B29213 [1]: 3.50 µg/mL (≈ 7.08 µM)
- melting point: 154 °C
SMILES: COc1nc2ccc(Cl)cc2cc1C(c1ccc(Cl)cc1)C1(O)CCNCC1c1cccnc1 (centres unmarked) [Compound 445]

Continued, compound first:

SMILES: O=c1[nH]c2ccc(Br)cc2cc1C(c1ccc(Cl)cc1)C1(O)CCNC(Cc2ccc(F)cc2F)C1 (centres unmarked) (as salt: hydrochloride) [Compound 315]
- melting point: > 260 °C

SMILES: O=c1[nH]c2ccc(Br)cc2cc1C(c1ccc(Cl)cc1)C1(O)CCNC(Cc2ccc(F)cc2F)C1 (centres unmarked) (as salt: hydrochloride) [Compound 322]
- melting point: 248 °C

SMILES: CS(=O)(=O)c1ccc2[nH]c(=O)c(C(c3cccc(Cl)c3)C3(O)CCNC(Cc4ccc(F)cc4F)C3)cc2c1 (centres unmarked) (as salt: hydrochloride) [Compound 327]
- melting point: 248 °C

SMILES: CSc1ccc2[nH]c(=O)c(C(c3ccc(Cl)cc3)C3(O)CCNC(Cc4ccc(F)cc4)C3)cc2c1 (centres unmarked) (as salt: hydrochloride) [Compound 334]
- melting point: 232 °C

SMILES: O=c1[nH]c2ccc(Br)cc2cc1C(c1ccc(Cl)cc1)C1(O)CCNC(Cc2ccc(F)cc2)C1 (centres unmarked) (as salt: hydrochloride) [Compound 341]
- melting point: > 260 °C

SMILES: O=c1[nH]c2ccc(Cl)cc2cc1C(c1ccc(Cl)cc1)C1(O)CCNC(Cc2ccc(F)cc2)C1 (centres unmarked) (as salt: hydrochloride) [Compound 343]
- melting point: > 250 °C

SMILES: CSc1ccc(C(c2cc3cc(Cl)ccc3[nH]c2=O)C2(O)CCNC(c3ccc(F)cc3C)C2)cc1 (centres unmarked) (as salt: hydrochloride) [Compound 349]
- melting point: > 250 °C

SMILES: O=c1[nH]c2ccc(Br)cc2cc1C(c1ccc(Cl)cc1)C1(O)CCNC(Cc2ccc(F)cc2)C1 (centres unmarked) (as salt: hydrochloride) [Compound 365]
- melting point: 242 °C

SMILES: O=c1[nH]c2ccc(F)cc2cc1C(c1ccc(Cl)cc1)C1(O)CCNC(Cc2ccccc2)C1 (centres unmarked) (as salt: hydrochloride) [Compound 375]
- melting point: > 250 °C

SMILES: O=c1[nH]c2ccc(Cl)cc2cc1C(c1ccc(Cl)cc1)C1(O)CCNCC1F (centres unmarked) (as salt: hydrochloride) [Compound 457]
- melting point: > 250 °C

SMILES: COc1nc2ccc(SC)cc2cc1C(c1cccc(Cl)c1)C1(O)CCNC(Cc2ccc(F)cc2F)C1 (centres unmarked) (as salt: trifluoroacetate) [Compound 50]
- melting point: 208 °C

SMILES: COc1nc2ccc(S(C)(=O)=O)cc2cc1C(c1ccc(Cl)cc1)C1(O)CCNC(Cc2ccc(F)cc2F)C1 (centres unmarked) (as salt: trifluoroacetate) [Compound 305]
- melting point: 133 °C

SMILES: COc1nc2ccc(S(C)(=O)=O)cc2cc1C(c1ccc(Cl)cc1)C1(O)CCNC(Cc2ccc(F)cc2F)C1 (centres unmarked) (as salt: trifluoroacetate) [Compound 306]
- melting point: 157 °C

SMILES: COc1nc2ccc(S(C)(=O)=O)cc2cc1C(c1cccc(Cl)c1)C1(O)CCNC(Cc2ccc(F)cc2F)C1 (centres unmarked) (as salt: trifluoroacetate) [Compound 325]
- melting point: 144 °C

SMILES: COc1nc2ccc(S(C)(=O)=O)cc2cc1C(c1cccc(Cl)c1)C1(O)CCNC(Cc2ccc(F)cc2F)C1 (centres unmarked) (as salt: trifluoroacetate) [Compound 326]
- melting point: 166 °C

SMILES: COc1nc2ccc(Br)cc2cc1C(n1cccn1)[C@@]1(O)CCN[C@H](Cc2ccccc2)C1 (stereo in doubt) (as salt: fumarate) [Compound 67]
- melting point: 245 °C

SMILES: CS(=O)(=O)c1ccc2[nH]c(=O)c(C(c3ccc(Cl)cc3)C3(O)CCN[C@@H](Cc4ccc(F)c(F)c4)C3)cc2c1 (stereo in doubt) (as salt: hydrochloride) [Compound 205]
- melting point: > 250 °C

SMILES: CS(=O)(=O)c1ccc2[nH]c(=O)c(C(c3ccc(Cl)cc3)C3(O)CCN[C@@H](Cc4ccc(F)c(F)c4)C3)cc2c1 (stereo in doubt) (as salt: hydrochloride) [Compound 206]
- melting point: 245 °C

SMILES: O=c1[nH]c2ccc(Cl)cc2cc1C(c1ccc(Cl)cc1)C1(O)CCNC(CO)C1 (centres unmarked) [Compound 20]
- IC90 [1]: > 10.9 µg/mL
- melting point: 232 °C

SMILES: COc1nc2ccc(F)cc2cc1C(c1ccccc1)C1(O)CCNC(CO)C1 (centres unmarked) [Compound 29]
- IC90 [1]: > 9.96 µg/mL
- melting point: 135 °C

SMILES: O=c1[nH]c2ccc(Br)cc2cc1C(c1ccc(Cl)cc1)C1(O)CCNC(Cc2ccccc2)C1 (centres unmarked) [Compound 81]
- IC90 [1]: 8.52 µg/mL (≈ 15.8 µM)
- melting point: 233 °C

SMILES: COc1nc2ccc(Cl)cc2cc1C(c1ccc(Cl)cc1)C1(O)CCNCC1c1cccnc1 (centres unmarked) [Compound 443]
- IC90 STA B29213 [1]: 4.41 µg/mL (≈ 8.92 µM)
- melting point: 156 °C

SMILES: COc1nc2ccc(Cl)cc2cc1C(c1ccc(Cl)cc1)C1(O)CCNCC1c1cccnc1 (centres unmarked) [Compound 444]
- IC90 STA B29213 [1]: 12.42 µg/mL (≈ 25.1 µM)
- melting point: 172 °C
